# Reference: US20130210034A1, “COMPLEX PHOSPHOPROTEIN ACTIVATION PROFILES” (BECKMAN COULTER, INC., priority 2005, published 2013)
# Experiments:
# pS6 = test: Phosphoprotein kinetic profiles in bone marrow samples from healthy donors; type: cell-based, human; details: at 4 min; 100 μM U0126
# Experimental: (§1) Phosphoprotein kinetic profiles were analyzed in bone marrow aspiration samples from nine healthy, adult donors (i.e., normal bone marrow or NBM) and from five AML patients. Samples from healthy donors included 5 males and 4 females, ranging in age from 26 to 49 years. Approximately 10 to 20 mL of bone marrow (BM) samples were collected from the posterior iliac crest of the volunteers using IRB approved protocols. The BM samples were filtered using a 40 μm Nylon cell strainer to remove marrow particles and the white blood cell concentration determined using a blood analyzer. […] The samples were immediately used for subsequent experimentation.
# (§2) To assess the signal transduction response after growth factor simulation, 100 to 200 μL of processed samples including about 2×10^6 WBC/100 μL were added to tubes and incubated at 37° C. for 30 minutes. For inhibition experiments, cells were incubated with 100 μM U0126, 1 μg/mL rapamycin, or both for at least 20 minutes prior to cytokine addition and in all cases for 30 min prior to formaldehyde addition. […] After stimulation the cells were immediately fixed by the addition of formaldehyde to a final concentration of 4% v/v and incubated for 10 minutes at room temperature. Following fixation, red blood cells were lysed by the addition of TRITON-X/PBS solution (0.1% v/v final concentration Triton X-100) supplemented with a 1 x phosphatase inhibitor cocktail (PIC; final concentrations: 0.2 mM sodium orthovanadate, 2 mM sodium pyrophosphate decahydrate, 2 mM [3-glycerophosphate, and 10 mM sodium fluoride) and incubation at 37° C. for 20 minutes. The incubated solution was chilled by the addition of ice-cold Wash Buffer (final concentration 1×PBS and either 4% bovine serum albumin (BSA) or 4% heat-inactivated fetal bovine serum (FBS), supplemented with 1×PIC), and the samples were centrifuged at 300 g for 6 minutes at 4° C.). If the lysis was incomplete, samples were retreated with 0.1% Triton X-100 at 37° C. for 10 to 20 minutes. After removal of the supernatant, cells were washed twice in ice-cold Wash Buffer supplemented with 1×PIC and permeabilized by the addition of pre-chilled 80% methanol while simultaneously vortexing the tube and incubated on ice for 10 minutes. Methanol was removed by centrifugation, the pellet was washed with ice-cold 1×PBS, and non-specific binding was blocked by the addition of ice-cold Wash Buffer supplemented with 1×PIC and incubation at 4° C. for a minimum of 30 minutes.
# (§3) To stain cells with fluorescent conjugated monoclonal antibodies, the incubated solution was centrifuged to remove the supernatant and the pellet was incubated for 60 minutes at 4° C. with an antibody staining solution including 0.25 μg to 0.50 μg of pS6-Pacific Blue, pERK-ALEXA 488, pSTAT5-ALEXA 647, CD34-PE, CD45-PerCP, and CD117-PC7. Samples were washed three times with ice-cold Wash Buffer supplemented with 1×PIC, resuspended in 0.5 mL ice-cold Wash Buffer supplemented with 1×PIC including 0.5 μg/mL DAPI, and analyzed by flow cytometryusing a BD LSR II Flow Cytometer, equipped with a High Throughput Sampler (HTS).
# (§4) First, doublets, aggregates, and debris were excluded by gating on single cell events in the SSC-Area versus SSC-Height histogram. Then, in events passing through this gate, debris near the origin of the FSC-Area versus SSC-Area plot (gray in FIG. 4A) was excluded by drawing a gate around an area encompassing, primarily, lymphocytes, monocytes, and granulocytes (LMG, black in FIG. 4A). Next, in cells passing through the LMG gate, the blast region (circle in FIG. 4B) was identified in the CD45 versus SSC-Area histogram (FIG. 4B). From this blast population, CD34+, CD117+ cells were identified in the CD34 versus CD117 plot (boxed area in FIG. 4C).
# pERK = test: as above; type: cell-based, human; details: 100 μM U0126 pre-incubation; healthy donor CD34^+, CD117^+ cells
# Experimental: as §1, §2, §3, §4
compound,measurement,setting,value
"N#CC(=C(/N)Sc1ccccc1N)/C(C#N)=C(\N)Sc1ccccc1N [U0126, reference compound]",Inhibition of SCF-stimulated S6 phosphorylation,pS6,partially blocked
same,Inhibition of SCF-stimulated ERK phosphorylation,pERK,completely inhibited
